*1 amine or outer side, *2 acyl side, *3 side chain or, on linkers, in order; H or OH if unused. Where a SMILES comes first, the peptide text is derived from it. Side-chain parts run from the residue outwards. The star is where a group is joined. C18 diacid = O=C(O)CCCCCCCCCCCCCCCCC(=O)*; γGlu = O=C(O)[C@H](CCC(=O)[*:2])N[*:1]; Isovaleryl = CC(C)CC(=O)*; AEEA = NCCOCCOCC(=O)O
target: T1, Human Neuropeptide Y2 Receptor (Homo sapiens, UniProt P49146); assay: Radioligand binding competition assay (RLB); settings: Table 3; human 125I-PYY (1-36) 0.02 nM, Y2 receptor membranes; read-out: Ki
T1 construct: purchased CHEMICON HTS066M
T1 sequence (P49146 1-381): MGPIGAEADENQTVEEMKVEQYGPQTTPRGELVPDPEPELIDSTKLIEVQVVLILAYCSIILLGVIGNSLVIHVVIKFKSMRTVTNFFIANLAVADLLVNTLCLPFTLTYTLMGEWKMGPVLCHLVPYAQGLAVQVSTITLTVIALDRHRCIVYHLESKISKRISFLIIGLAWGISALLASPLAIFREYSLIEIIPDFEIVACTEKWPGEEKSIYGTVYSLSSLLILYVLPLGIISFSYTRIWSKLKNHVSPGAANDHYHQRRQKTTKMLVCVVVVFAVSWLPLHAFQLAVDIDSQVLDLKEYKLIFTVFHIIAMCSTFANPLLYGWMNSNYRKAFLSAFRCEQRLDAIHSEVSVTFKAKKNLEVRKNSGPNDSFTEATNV
Outline: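 Filtration format; Y2R membrane prep 0.5 μg/well; buffer 50 mM HEPES/5 mM MgCl2/1 mM CaCl2/0.2% ovalbumin pH 7.4; 2 h RT, shaking. Harvest on PEI-soaked GF/C, ice-cold HEPES/500 mM NaCl washes, scintillation count. IC50 by nonlinear fit.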

SMILES	Ki
CC(C)CC(=O)N[C@@H](C)C(=O)N1CCC[C@H]1C(=O)N[C@@H](CCC(=O)O)C(=O)N[C@@H](CCCCNC(=O)COCCOCCNC(=O)COCCOCCNC(=O)CC[C@H](NC(=O)CCCCCCCCCCCCCCCCC(=O)O)C(=O)O)C(=O)N1CCC[C@H]1C(=O)N1CCC[C@H]1C(=O)N[C@@H](C)C(=O)N[C@@H](CC(=O)O)C(=O)N[C@@H](C)C(=O)N[C@@H](CO)C(=O)N1CCC[C@H]1C(=O)N[C@@H](CCC(=O)O)C(=O)N[C@@H](CCC(=O)O)C(=O)N[C@@H](CC(C)C)C(=O)N[C@@H](CCC(N)=O)C(=O)N[C@@H](CCCNC(=N)N)C(=O)N[C@@H](Cc1ccc(O)cc1)C(=O)N[C@@H](Cc1ccc(O)cc1)C(=O)N[C@H](C(=O)N[C@@H](CO)C(=O)N[C@@H](CC(C)C)C(=O)N[C@@H](CCCNC(=N)N)C(=O)N[C@@H](Cc1c[nH]cn1)C(=O)N[C@@H](Cc1ccc(O)cc1)C(=O)N[C@@H](Cc1ccc(O)cc1)C(=O)N[C@@H](CC(N)=O)C(=O)N[C@@H](Cc1c[nH]c2ccccc12)C(=O)N[C@@H](CC(C)C)C(=O)N[C@H](C(=O)N[C@@H](CCCNC(=N)N)C(=O)N[C@@H](CCC(N)=O)C(=O)N[C@@H](CCCNC(=N)N)C(=O)N[C@@H](Cc1ccc(O)cc1)C(N)=O)[C@@H](C)O)C(C)C [Compound 47, N{alpha-4}-(3-methylbutanoyl)-N{epsilon-7}-[2-(2-{2-[2-(2-{2-[(4S)-4-carboxy-4-(17-carboxyheptadecanamido)butanamido]ethoxy}ethoxy)acetamido]ethoxy}ethoxy)acetamido]-[4A,7K,9P,10A,18Q,22V,28Y,30W,31L]hPYY (4-36)]	0.42 nM
CC(C)CC(=O)N[C@@H](C)C(=O)N1CCC[C@H]1C(=O)N[C@@H](CCC(=O)O)C(=O)N[C@@H](CCCCNC(=O)COCCOCCNC(=O)COCCOCCNC(=O)CC[C@H](NC(=O)CCCCCCCCCCCCCCCCC(=O)O)C(=O)O)C(=O)N1CCC[C@H]1C(=O)N[C@@H](CCC(=O)O)C(=O)N[C@@H](CCC(=O)O)C(=O)N[C@@H](CC(=O)O)C(=O)N[C@H](C(=O)N[C@@H](CCC(=O)O)C(=O)N1CCC[C@H]1C(=O)N[C@@H](CCC(=O)O)C(=O)N[C@@H](CCC(=O)O)C(=O)N[C@@H](CC(C)C)C(=O)N[C@@H](CCC(N)=O)C(=O)N[C@@H](CCCNC(=N)N)C(=O)N[C@@H](Cc1ccc(O)cc1)C(=O)N[C@@H](Cc1ccc(O)cc1)C(=O)N[C@H](C(=O)N[C@@H](CO)C(=O)N[C@@H](CC(C)C)C(=O)N[C@@H](CCCNC(=N)N)C(=O)N[C@@H](Cc1c[nH]cn1)C(=O)N[C@@H](Cc1ccc(O)cc1)C(=O)N[C@@H](Cc1ccc(O)cc1)C(=O)N[C@@H](CC(N)=O)C(=O)N[C@@H](Cc1c[nH]c2ccccc12)C(=O)N[C@@H](CC(C)C)C(=O)N[C@H](C(=O)N[C@@H](CCCNC(=N)N)C(=O)N[C@@H](CCC(N)=O)C(=O)N[C@@H](CCCNC(=N)N)C(=O)N[C@@H](Cc1ccc(O)cc1)C(N)=O)[C@@H](C)O)C(C)C)[C@@H](C)O [Compound 48, N{alpha-4}-(3-methylbutanoyl)-N{epsilon-7}-[2-(2-{2-[2-(2-{2-[(4S)-4-carboxy-4-(17-carboxyheptadecanamido)butanamido]ethoxy}ethoxy)acetamido]ethoxy}ethoxy)acetamido]-[4A,7K,9E,12T,13E,18Q,22V,28Y,30W,31L]hPYY (4-36)]	38.9 nM
CC(C)CC(=O)N[C@@H](C)C(=O)N1CCC[C@H]1C(=O)N[C@@H](CCC(=O)O)C(=O)N[C@@H](CCCCNC(=O)COCCOCCNC(=O)COCCOCCNC(=O)CC[C@H](NC(=O)CCCCCCCCCCCCCCCCC(=O)O)C(=O)O)C(=O)N[C@@H](C)C(=O)N[C@@H](CCC(=O)O)C(=O)N[C@@H](CCC(=O)O)C(=O)N[C@@H](CCC(=O)O)C(=O)N[C@@H](C)C(=O)N[C@@H](CO)C(=O)N1CCC[C@H]1C(=O)N[C@@H](CCC(=O)O)C(=O)N[C@@H](CCC(=O)O)C(=O)N[C@@H](CC(C)C)C(=O)N[C@@H](CCC(N)=O)C(=O)N[C@@H](CCCNC(=N)N)C(=O)N[C@@H](Cc1ccc(O)cc1)C(=O)N[C@@H](Cc1ccc(O)cc1)C(=O)N[C@H](C(=O)N[C@@H](CO)C(=O)N[C@@H](CC(C)C)C(=O)N[C@@H](CCCNC(=N)N)C(=O)N[C@@H](Cc1c[nH]cn1)C(=O)N[C@@H](Cc1ccc(O)cc1)C(=O)N[C@@H](Cc1ccc(O)cc1)C(=O)N[C@@H](CC(N)=O)C(=O)N[C@@H](Cc1c[nH]c2ccccc12)C(=O)N[C@@H](CC(C)C)C(=O)N[C@H](C(=O)N[C@@H](CCCNC(=N)N)C(=O)N[C@@H](CCC(N)=O)C(=O)N[C@@H](CCCNC(=N)N)C(=O)N[C@@H](Cc1ccc(O)cc1)C(N)=O)[C@@H](C)O)C(C)C [Compound 51, N{alpha-4}-(3-methylbutanoyl)-N{epsilon-7}-[2-(2-{2-[2-(2-{2-[(4S)-4-carboxy-4-(17-carboxyheptadecanamido)butanamido]ethoxy}ethoxy)acetamido]ethoxy}ethoxy)acetamido]-[4A,7K,8A,9E,11E,18Q,22V,28Y,30W,31L]hPYY (4-36)] (Isovaleryl-APEK([AEEA-AEEA-γGlu-C18 diacid])AEEEASPEELQRYYVSLRHYYNWLTRQRY-NH2)	39.4 nM
CC(C)CC(=O)N[C@@H](C)C(=O)N1CCC[C@H]1C(=O)N[C@@H](CCC(=O)O)C(=O)N[C@@H](CCCCNC(=O)COCCOCCNC(=O)COCCOCCNC(=O)CC[C@H](NC(=O)CCCCCCCCCCCCCCCCC(=O)O)C(=O)O)C(=O)N[C@@H](C)C(=O)N[C@@H](CCC(=O)O)C(=O)N[C@@H](CCC(=O)O)C(=O)N[C@@H](CC(=O)O)C(=O)N[C@@H](C)C(=O)N[C@@H](CO)C(=O)N[C@@H](CCC(=O)O)C(=O)N[C@@H](CCC(=O)O)C(=O)N[C@@H](CCC(=O)O)C(=O)N[C@@H](CC(C)C)C(=O)N[C@@H](CCC(N)=O)C(=O)N[C@@H](CCCNC(=N)N)C(=O)N[C@@H](Cc1ccc(O)cc1)C(=O)N[C@@H](Cc1ccc(O)cc1)C(=O)N[C@H](C(=O)N[C@@H](CO)C(=O)N[C@@H](CC(C)C)C(=O)N[C@@H](CCCNC(=N)N)C(=O)N[C@@H](Cc1c[nH]cn1)C(=O)N[C@@H](Cc1ccc(O)cc1)C(=O)N[C@@H](Cc1ccc(O)cc1)C(=O)N[C@@H](CC(N)=O)C(=O)N[C@@H](Cc1c[nH]c2ccccc12)C(=O)N[C@@H](CC(C)C)C(=O)N[C@H](C(=O)N[C@@H](CCCNC(=N)N)C(=O)N[C@@H](CCC(N)=O)C(=O)N[C@@H](CCCNC(=N)N)C(=O)N[C@@H](Cc1ccc(O)cc1)C(N)=O)[C@@H](C)O)C(C)C [Compound 52, N{alpha-4}-(3-methylbutanoyl)-N{epsilon-7}-[2-(2-{2-[2-(2-{2-[(4S)-4-carboxy-4-(17-carboxyheptadecanamido)butanamido]ethoxy}ethoxy)acetamido]ethoxy}ethoxy)acetamido]-[4A,7K,8A,9E,14E,18Q,22V,28Y,30W,31L]hPYY (4-36)]	8.53 nM
CC(C)CC(=O)N[C@@H](C)C(=O)N1CCC[C@H]1C(=O)N[C@@H](CCC(=O)O)C(=O)N[C@@H](CCCCNC(=O)COCCOCCNC(=O)COCCOCCNC(=O)CC[C@H](NC(=O)CCCCCCCCCCCCCCCCC(=O)O)C(=O)O)C(=O)N1CCC[C@H]1C(=O)N[C@@H](CCC(=O)O)C(=O)N[C@@H](CCC(=O)O)C(=O)N[C@@H](CC(=O)O)C(=O)N[C@@H](C)C(=O)N[C@@H](CO)C(=O)N1CCC[C@H]1C(=O)N[C@@H](CCC(=O)O)C(=O)N[C@@H](CCC(=O)O)C(=O)N[C@@H](C)C(=O)N[C@@H](CCC(N)=O)C(=O)N[C@@H](CCCNC(=N)N)C(=O)N[C@@H](Cc1ccc(O)cc1)C(=O)N[C@@H](Cc1ccc(O)cc1)C(=O)N[C@H](C(=O)N[C@@H](CO)C(=O)N[C@@H](CC(C)C)C(=O)N[C@@H](CCCNC(=N)N)C(=O)N[C@@H](Cc1c[nH]cn1)C(=O)N[C@@H](Cc1ccc(O)cc1)C(=O)N[C@@H](Cc1ccc(O)cc1)C(=O)N[C@@H](CC(N)=O)C(=O)N[C@@H](Cc1c[nH]c2ccccc12)C(=O)N[C@@H](CC(C)C)C(=O)N[C@H](C(=O)N[C@@H](CCCNC(=N)N)C(=O)N[C@@H](CCC(N)=O)C(=O)N[C@@H](CCCNC(=N)N)C(=O)N[C@@H](Cc1ccc(O)cc1)C(N)=O)[C@@H](C)O)C(C)C [Compound 55, N{alpha-4}-(3-methylbutanoyl)-N{epsilon-7}-[2-(2-{2-[2-(2-{2-[(4S)-4-carboxy-4-(17-carboxyheptadecanamido)butanamido]ethoxy}ethoxy)acetamido]ethoxy}ethoxy)acetamido]-[4A,7K,9E,17A,18Q,22V,28Y,30W,31L]hPYY (4-36)]	3.35 nM

— US12559529B2, “NPY2 receptor agonists” (Boehringer Ingelheim International GmbH, priority 2019, dated 2026)
